Tested on: T1, CnGntR
T1 construct: gene gntR; full-length TR gene with PH16_RS19190-mRFP1 reporter on plasmid pEA007; host C. necator H16; regulator of cluster H16_RS19175-H16_RS19195, its own locus tag inferred
Experiment: mRFP1 reporter dose-response in cells, Hill fit
Type: cell-based, Cupriavidus necator
Settings: inducer of transcriptional regulator; half-maximal reporter output; host C. necator H16; minimal medium with 0.4% gluconate, 30 °C, 6 h; Hill coefficient 1.19; read-out: Km
Source text: mRFP1 reporter dose-response in cells, Hill fit on CnGntR

Structure (SMILES): C[C@H](O)C(=O)O [L-lactate]
- EC50: 670 ± 210 µM
